# Data as given in patent US10266520B2, “Bisamidinium-based inhibitors for the treatment of myotonic dystrophy” (The Board of Trustees of the University of Illinois, priority 2014, dated 2019).
# Key:
# (CUG)12 = experiment: Isothermal titration calorimetry (ITC) binding to (CUG)12; settings: 25° C., read-out: KD, binding affinity toward (CUG)12
# Experimental: The alkyne and azide moieties were chosen because of their small size, excellent stability, and ultimate bioorthogonality. […] This finding enables the rapid development of a wide range of functional derivatives of ligand 1a using the [3+2] alkyne-azide cycloaddition (‘click reaction’) of 1b and 1c.
# The ligand stock solution (10 mM in water). MOPS buffer (100 mM; pH 7.0±0.2), and NaCl (5000 mM) were prepared. The ligand solution (1 mL) contained of 0.5 mM of ligand, 20 mM of MOPS buffer, and 150 mM of NaCl. The RNA solution (2 mL) contained 0.02 mM of RNA, 20 mM of MOPS buffer, and 150 mM of NaCl. The resulting RNA solution was heated in a water bath at 90° C. for 5 min, then allowed to cool to room temperature for 2 h.
# ITC measurements were performed at 25° C. on a MicroCal VP-ITC calorimeter (Northampton, Mass.). A typical experiment consisted of titrating 10 μL of a ligand solution (500 μM) from a 250 μL syringe (stirred at 300 rpm) into a sample cell containing 1.42 mL of a RNA solution (10 μM) with total 28 injections. The initial delay prior to the first injection was 60 s. The duration of each injection was 24 s and the delay between injections was 300 s. […] Binding parameters such as the dissociation constant (KD), enthalpy change (ΔH), and entropy change (ΔS) were determined by fitting the experimental binding isotherms with various model. […]
# [1] = earlier work; cited from earlier work
smiles,measurement,setting,value
N=C(NCCCCNc1nc(N)nc(N)n1)c1ccc(C(=N)NCCCCNc2nc(N)nc(N)n2)cc1 [Compound 1a],Kd,(CUG)12,8 µM
same,cytotoxicity,[1],low cytotoxicity
